The results in this text go back to patent US11897868B2, “Heterocyclic inhibitors of PCSK9” (CARDIO THERAPEUTICS PTY LTD, priority 2017, dated 2024).

The target of the first test is T1, PCSK9 and the LDL receptor (Homo sapiens, UniProt Q8NBP7).
T1 construct: purchased CircuLex CY-8150
T1 sequence (Q8NBP7 153-692): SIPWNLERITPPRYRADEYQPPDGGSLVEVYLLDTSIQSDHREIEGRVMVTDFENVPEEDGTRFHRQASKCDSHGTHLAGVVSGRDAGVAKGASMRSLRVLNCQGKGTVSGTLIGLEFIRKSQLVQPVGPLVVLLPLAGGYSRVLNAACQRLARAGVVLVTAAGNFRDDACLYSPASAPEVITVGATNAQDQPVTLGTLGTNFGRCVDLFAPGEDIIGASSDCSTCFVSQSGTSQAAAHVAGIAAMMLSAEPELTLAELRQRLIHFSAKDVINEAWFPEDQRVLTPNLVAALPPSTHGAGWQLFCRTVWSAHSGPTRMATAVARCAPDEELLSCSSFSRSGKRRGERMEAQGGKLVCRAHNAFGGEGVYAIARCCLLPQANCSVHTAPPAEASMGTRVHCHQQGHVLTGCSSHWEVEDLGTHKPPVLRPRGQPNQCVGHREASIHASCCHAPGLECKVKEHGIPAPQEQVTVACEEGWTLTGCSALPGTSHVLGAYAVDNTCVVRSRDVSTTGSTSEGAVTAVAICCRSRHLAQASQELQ
T1 sequence (Q8NBP7 31-152 partner limits assumed): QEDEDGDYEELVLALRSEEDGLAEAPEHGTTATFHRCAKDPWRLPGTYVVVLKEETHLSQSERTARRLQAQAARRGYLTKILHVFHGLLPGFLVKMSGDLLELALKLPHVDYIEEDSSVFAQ
The experiment in a line: CircuLex PCSK9-LDLR in vitro binding assay. The note with it: His-tagged PCSK9 wild type, 8 point concentration curves, absorbance 450 nm and 540 nm, read-out: Inhibition of PCSK9-LDLR binding. Here is the method:
Compounds were assayed for their ability to inhibit the binding between PCSK9 and the LDL receptor using a CircuLex PCSK9-LDLR in vitro binding assay kit (Catalog #CY-8150. The procedure employed the reagents and buffers included in the kit as follows.
88 μL of 1× reaction buffer were placed into each well. 5 μL of test compounds in 20% DMSO were added into each well. 10 mM solutions of test compounds in DMSO were diluted by 3-fold series to give 8 point concentration curves. The compounds were then diluted 20-fold with the reaction buffer. To each well was then added 7 μL of His-tagged PCSK9 wild type solution (1000 ng/mL) into each well. The plate was then covered with a plate sealer and incubated at room temperature for 3 hours, shaking at 300 rpm on an orbital microplate shaker. The test solutions were washed 4 times with 350 μL wash buffer. 100 μL of biotinylated anti-His-tag monoclonal antibody was added to each well. The plate was covered with a plate sealer, and incubated at room temperature for 1 hour, shaking at 300 rpm. The test solutions were washed 4 times with 350 μL wash buffer. 100 μL of HRP-conjugated streptavidin was added to each well. The plate was covered with a plate sealer, and incubated at room temperature for 20 min, shaking at 300 rpm.
The test solutions were washed 4 times with 350 μL wash buffer. 100 μL of substrate reagent were added into each well. The plate was covered with a plate sealer, and incubated at room temperature for 15 min, shaking at 300 rpm. Finally, 100 μL of the stop solution was added to each well in the same order as the previously added substrate reagent. Absorbance was measured at 450 nm and 540 nm and IC50 curves were plotted.
As to `CC(=O)Nc1ccnc(Nc2cc(C(=O)Nc3cc(-n4cnc(C)c4)cc(C(F)(F)F)c3)ccc2C)n1` [Example 16, 3-((4-acetamidopyrimidin-2-yl)amino)-4-methyl-N-(3-(4-methyl-1H-imidazol-1-yl)-5-(trifluoromethyl)phenyl)benzamide], the IC50 lay in the range of 10 to 100 µM. As to `Cc1cn(-c2cc(NC(=O)c3ccc(C)c(Nc4nccc(-c5ccccc5)n4)c3)cc(C(F)(F)F)c2)cn1` [Example 3, 4-methyl-N-(3-(4-methyl-1H-imidazol-1-yl)-5-(trifluoromethyl)phenyl)-3-((4-phenylpyrimidin-2-yl)amino)benzamide], the IC50 was in the range of 1 to 10 µM. For `Cc1cn(-c2cc(NC(=O)c3ccc(C)c(Nc4ncccn4)c3)cc(C(F)(F)F)c2)cn1` [Example 4, 4-methyl-N-(3-(4-methyl-1H-imidazol-1-yl)-5-(trifluoromethyl)phenyl)-3-(pyrimidin-2-ylamino)benzamide], the IC50 lay in the range of 10 to 100 µM.

In the case of `Cc1cn(-c2cc(NC(=O)c3ccc(C)c(Nc4nccc(-c5ccccc5)n4)c3)cc(N3CCN(C)CC3)c2)cn1` [Example 6, 4-methyl-N-(3-(4-methyl-1H-imidazol-1-yl)-5-(4-methylpiperazin-1-yl)phenyl)-3-((4-phenylpyrimidin-2-yl)amino)benzamide], the IC50 was in the range of 0.1 to 1 µM. Turning to `Cc1ccc(C(=O)Nc2cc(N3CCN(C)CC3)cc(-n3cnc(C)c3)c2)cc1` [Example 24, 4-methyl-N-(3-(4-methyl-1H-imidazol-1-yl)-5-(4-methylpiperazin-1-yl)phenyl)benzamide], the IC50 was in the range of 10 to 100 µM. Take `Cc1cn(-c2cc(CCC(=O)O)cc(NC(=O)c3ccc(C)c(Nc4nccc(-c5ccccc5)n4)c3)c2)cn1` [Example 9, 3-(3-(4-methyl-1H-imidazol-1-yl)-5-(4-methyl-3-((4-phenylpyrimidin-2-yl)amino)benzamido)phenyl)propanoic Acid]: the IC50 lay in the range of 1 to 10 µM. As to `Cc1cn(-c2cc(/C=C/C(=O)O)cc(NC(=O)c3ccc(C)c(Nc4nccc(-c5ccccc5)n4)c3)c2)cn1` [Example 8, (E)-3-(3-(4-methyl-1H-imidazol-1-yl)-5-(4-methyl-3-((4-phenylpyrimidin-2-yl)amino)benzamido)phenyl)acrylic Acid], the IC50 was in the range of 10 to 100 µM. Take `Cc1ccc(C(=O)Nc2cc(-n3cnc(C)c3)cc(C(F)(F)F)c2)cc1` [Example 12, 4-methyl-N-(3-(4-methyl-1H-imidazol-1-yl)-5-(trifluoromethyl)phenyl)benzamide]: the IC50 fell in the range of 10 to 100 µM. Consider `Cc1cc(-c2cc(NC(=O)c3ccc(C)c(Nc4nccc(-c5ccc(F)cc5)n4)c3)cc(N3CCN(C)CC3)c2)on1` [Example 29, 3-((4-(4-fluorophenyl)pyrimidin-2-yl)amino)-4-methyl-N-(3-(3-methylisoxazol-5-yl)-5-(4-methylpiperazin-1-yl)phenyl)benzamide], for which the IC50 fell in the range of 10 to 100 µM. Consider `Cc1cn(-c2cc(NC(=O)c3ccc(C)c(OCc4ccccc4)c3)cc(C(F)(F)F)c2)cn1` [Example 14, 3-(benzyloxy)-4-methyl-N-(3-(4-methyl-1H-imidazol-1-yl)-5-(trifluoromethyl)phenyl)benzamide], for which the IC50 is 10 to 100 µM. The same measure, in the same setting: for `Cc1cn(-c2cc(N3C(=O)c4cc(C)c(Nc5nccc(-c6cccnc6)n5)cc4C3=O)cc(C(F)(F)F)c2)cn1` [Example 18, 5-methyl-2-(3-(4-methyl-1H-imidazol-1-yl)-5-(trifluoromethyl)phenyl)-6-((4-(pyridin-3-yl)pyrimidin-2-yl)amino)isoindoline-1,3-dione] the value was 1 to 10 µM; for `Cc1cn(-c2cc(CN3CCC[C@H](N)C3)cc(NC(=O)c3ccc(C)c(Nc4nccc(-c5ccc(F)cc5)n4)c3)c2)cn1` [Example 19, (S)—N-(3-((3-aminopiperidin-1-yl)methyl)-5-(4-methyl-1H-imidazol-1-yl)phenyl)-3-((4-(4-fluorophenyl)pyrimidin-2-yl)amino)-4-methylbenzamide], 0.1 to 1 µM. On to `Cc1cn(-c2cc(NC(=O)c3ccc(C)c(C(=O)c4cccc(C#N)c4)c3)cc(N3CCN(C)CC3)c2)cn1` [Example 28, 3-(3-cyanobenzoyl)-4-methyl-N-(3-(4-methyl-1H-imidazol-1-yl)-5-(4-methylpiperazin-1-yl)phenyl)benzamide], for which the IC50 was 1 to 10 µM. In the case of `Cc1cn(-c2cc(CN3CCCC[C@H]3C(=O)O)cc(NC(=O)c3ccc(C)c(Nc4nccc(-c5ccc(F)cc5)n4)c3)c2)cn1` [Example 20, (S)-1-(3-(3-((4-(4-fluorophenyl)pyrimidin-2-yl)amino)-4-methylbenzamido)-5-(4-methyl-1H-imidazol-1-yl)benzyl)piperidine-2-carboxylic Acid], the IC50 lay in the range of 10 to 100 µM. As for `Cc1cn(-c2cc(NC(=O)c3ccc(C)c(Nc4nccc(-c5ccncc5)n4)c3)cc(C(F)(F)F)c2)cn1` [Example 2, 4-methyl-N-(3-(4-methyl-1H-imidazol-1-yl)-5-(trifluoromethyl)phenyl)-3-((4-(pyridin-4-yl)pyrimidin-2-yl)amino)benzamide], the IC50 lay within 1 to 10 µM. Regarding `Cc1cn(-c2cc(NC(=O)c3ccc(C)c(Nc4nccc(-c5ccccn5)n4)c3)cc(C(F)(F)F)c2)cn1` [Example 1, 4-methyl-N-(3-(4-methyl-1H-imidazol-1-yl)-5-(trifluoromethyl)phenyl)-3-((4-(pyridin-2-yl)pyrimidin-2-yl)amino)benzamide], the IC50 lay within 10 to 100 µM. On the same count and under the same terms, next, `Cc1cn(-c2cc(CN3CCN(C)CC3)cc(NC(=O)c3ccc(C)c(Nc4nccc(-c5ccccc5)n4)c3)c2)cn1` [Example 7, 4-methyl-N-(3-(4-methyl-1H-imidazol-1-yl)-5-((4-methylpiperazin-1-yl)methyl)phenyl)-3-((4-phenylpyrimidin-2-yl)amino)benzamide]: 0.1 to 1 µM; `Cc1cn(-c2cc(NC(=O)c3ccc(C)c(Nc4nccc(-c5ccccc5)n4)c3)cc(N3CCNCC3)c2)cn1` [Example 5, 4-methyl-N-(3-(4-methyl-1H-imidazol-1-yl)-5-(piperazin-1-yl)phenyl)-3-((4-phenylpyrimidin-2-yl)amino)benzamide]: 0.1 to 1 µM. For the molecule `Cc1ccc(C(=O)Nc2cccc(N3CCN(C)CC3)c2)cc1Nc1nccc(-c2ccc(F)cc2)n1` [Example 31, 3-((4-(4-fluorophenyl)pyrimidin-2-yl)amino)-4-methyl-N-(3-(4-methylpiperazin-1-yl)phenyl)benzamide], the IC50 is 1 to 10 µM. The same measure, in the same setting: next, `Cc1cn(-c2cc(NC(=O)c3ccc(C)c(Oc4ccccc4)c3)cc(C(F)(F)F)c2)cn1` [Example 13, 4-methyl-N-(3-(4-methyl-1H-imidazol-1-yl)-5-(trifluoromethyl)phenyl)-3-phenoxybenzamide]: 10 to 100 µM; `Cc1cn(-c2cc(NS(=O)(=O)c3ccc(C)c(Nc4nccc(-c5ccccc5)n4)c3)cc(C(F)(F)F)c2)cn1` [Example 15, 4-methyl-N-(3-(4-methyl-1H-imidazol-1-yl)-5-(trifluoromethyl)phenyl)-3-((4-phenylpyrimidin-2-yl)amino)benzenesulfonamide]: 10 to 100 µM; `Cc1cn(-c2cc(NC(=O)c3ccc(C)c(Nc4nccc(-c5ccc(F)cc5)n4)c3)cc(N3CCOCC3)c2)cn1` [Example 23, 3-((4-(4-fluorophenyl)pyrimidin-2-yl)amino)-4-methyl-N-(3-(4-methyl-1H-imidazol-1-yl)-5-morpholinophenyl)benzamide]: 10 to 100 µM. As to `CCCCc1cc(NC(=O)c2ccc(C)c(Nc3nccc(-c4ccccc4)n3)c2)cc(-n2cnc(C)c2)c1` [Example 11, N-(3-butyl-5-(4-methyl-1H-imidazol-1-yl)phenyl)-4-methyl-3-((4-phenylpyrimidin-2-yl)amino)benzamide], the IC50 lay in the range of 1 to 10 µM.

Still in this test, the particulars now being: His-tagged PCSK9 wild type; 8 point concentration curves; absorbance 450 nm and 540 nm; IC50 curves.
On to `Cc1cn(-c2cc(NS(=O)(=O)c3ccc(C)c(Nc4nccc(-c5ccc(F)cc5)n4)c3)cc(N3CCN(C)CC3)c2)cn1` [Example 22, 3-((4-(4-fluorophenyl)pyrimidin-2-yl)amino)-4-methyl-N-(3-(4-methyl-1H-imidazol-1-yl)-5-(4-methylpiperazin-1-yl)phenyl)benzenesulfonamide], for which the “Inhibition of PCSK9-LDLR binding” value is reported as “* (Starred values refer to levels of inhibition of binding by less than 35% at the highest concentration tested, due either to solubility limitations or dynamic range limitations of the assay.)”. Turning to `COCCN1CCN(c2cc(NC(=O)c3ccc(C)c(Oc4ccccc4)c3)cc(-n3cnc(C)c3)c2)CC1` [Example 26, N-(3-(4-(2-methoxyethyl)piperazin-1-yl)-5-(4-methyl-1H-imidazol-1-yl)phenyl)-4-methyl-3-phenoxybenzamide], the “Inhibition of PCSK9-LDLR binding” value is recorded as “* (Starred values refer to levels of inhibition of binding by less than 35% at the highest concentration tested, due either to solubility limitations or dynamic range limitations of the assay.)”.
